We go through two molecules from PMC7791840, “The R-enantiomer of ketorolac reduces ovarian cancer tumor burden in vivo” (BMC Cancer, 2021).

Counter-ions that a name gives are not always drawn. Some results are limits rather than exact numbers.

Data set [1] can be described thus: Toxicity assessment, blood chemistry after chronic treatment. In kind it is in vivo. As to conditions: tumor-bearing mice, 5 mg/kg/d, 25 days, Average ± SD. As for the experimental part:
For toxicity assessment studies at an increased R-ketorolac dose of 5 mg/kg/d, athymic nude female mice were purchased from Charles River Laboratory (Wilmington, MA, strain code 490). Mice were injected i.p. with 1 × 10^6 SKOV3ip-RLuc-GFP cells suspended in sterile saline. Xenografts were established until tumors reached a bioluminescence imaging (BLI) value of ~ 3 × 10^8 radiance (IVIS SpectrumCT, PerkinElmer, Waltham MA). Mice were conditioned to placebo pills once a day for no less than 3 days during xenograft growth, then randomized to receive placebo or 5 mg/kg/d R-ketorolac for 25 days. Blood was collected via cardiac puncture and 0.2–0.4 mL was added to Lithium Heparin tubes (BD Microtainer, Ref #365965). Samples were mixed thoroughly immediately after filling the tube by gently inverting the tube by hand. Samples were kept and analyzed at room temperature within 60 min of collection. For each sample analysis 100 μl of blood was added to Abaxis Comprehensive Diagnostic Profile cassette (Abaxis, Inc. Union City, CA Ref. # 500–0038-24) and values obtained using Abaxis VetScan2 analyzer.

In a further data set the test system is Cdc42. Details: method as in earlier work. As to conditions: cell-based assays, ovarian tumor cells; ref 23 (R-ketorolac), 27 (S-ketorolac); cited from earlier work.
Details of data set [2]: method as in PMID 8809637. The settings on record: single dose oral administration of R-ketorolac; cited from earlier work.
For data set [3] the following is noted: mouse, in vivo.
Method: Foxn1^nu NU /J athymic nude female mice, aged 6–9 weeks, were purchased from The Jackson Laboratory (Bar Harbor, ME, stock number 002019). […] Mice were maintained at a controlled temperature of 22–23 °C, with a 12-h light/12-h dark cycle. Water and standard mouse chow were available ad libitum. […] Their health status was monitored throughout the experiment. […] Mice were euthanized using a CO2 chamber in accordance with the recommendation of the Panel on Euthanasia of the American Veterinary Medical Association. Cervical dislocation was then carried out to confirm death before tumor analysis and tissue collection.
Another data set has as its system ovarian tumor cell. Also noted: method as in PMID 26071482, PMID 26558612, PMID 26206334. As to conditions: cited from earlier work.
For another data set, the system named is SKOV3ip-GFP cells. As to the kind of experiment: Short-term omental engraftment assay. The settings on record: 18 h post i.p. injection; 1 mg/kg oral every 12 h; cells pretreated with 10 μM; vs placebo. In kind it is in vivo, mice. The method, then:
Mice were conditioned to placebo pills for two days prior to drug treatment. […] Consumption was confirmed by visual observation. […] Omenta were harvested from animals 18 h post-injection and placed in ice cold 1X phosphate-buffered saline (PBS) until imaged with an Olympus IX70 inverted fluorescent microscope and Olympus CellSens software. SKOV3ip-GFP cells were subsequently digested from the omentum using 10% NP-40 substitute (Sigma, cat# 74385) in 1X PBS for 30 min at 37 °C. Omenta were gently homogenized using disposable micropestles, centrifuged, and fluorescence intensity was measured using a […] Spectramax M2 plate spectrophotometer (ex:480 nm, em:520 nm).

The test system of a further data set is COX-1. Also noted: method as in PMID 26558612, PMID 10027870. The settings on record: cited from earlier work.
Data set [4] is described as follows: Enantiomer stability of ketorolac in the oral dosage form (HPLC). The class given is physicochemical. The settings on record: transgenic dough pills stored at 4 °C. As for the experimental part:
As an alternative to gavage for oral delivery, drug was administered in pills formed from transgenic dough (BioServ, Flemington, NJ, cat #S3472). […] Briefly, R-Ketorolac was dissolved in 100% ethanol to a concentration of 5 mg/ml. Bromophenol blue was added to solutions at a final concentration of 0.1% as an aid to ensure even distribution of drug into the dough. Placebo pills were made using an equivalent volume of 100% ethanol containing 0.1% bromophenol blue. Dough was then pressed using 100 mg pill forms (Gallipot, St. Paul, MN). Pills were allowed to dry at room temperature overnight then removed from the forms and stored at 4 °C. Ketorolac, as racemic compound or individual enantiomer, was stable for at least 3 months in the pills as determined by high performance liquid chromatography (HPLC) (Additional File 2: Figure S1).
Cell Culture and Reagents
SKOV3ip cells were modified to express GFP-Rac1 by transfection with pcDNA3-EGFP-Rac1-wt (Catalog # 12980, Addgene) as described for SKOV3ip-GFP cells under Methods. Rac1 overexpression quantification and verification was completed by western blot and qPCR. […]
Omental tissue was harvested and stored on ice in PBS for no more than 1 hour before analysis. Omenta were blotted dry on lab tissue and weight was measured using an analytical balance (Denver Instruments Company, A -160). […]

Setting [5] is: ROS model for points below limit of detection.

As a reminder, the IC50 is the concentration that inhibits the measured activity by half. For `O=C(c1ccccc1)c1ccc2n1CC[C@H]2C(=O)O` [R-ketorolac], in data set [1], the Alanine aminotransferase is 32.30 ± 11.35 U/L, the Albumin is reported as 4.05 ± 0.40 g/dL, the Amylase is 1069 ± 264 U/L and the “Blood Urea Nitrogen” value amounted to 16.4 ± 2.59 mg/dL. In addition, in data set [1], the Calcium amounted to 11.58 ± 0.79 mg/dL, the Globulin is recorded as 1.77 ± 0.43 g/dL, the Glucose came to 287.7 ± 81.31 mg/dL and the “Mouse Weight” value is 23.67 ± 1.30 g. Further, in data set [1], the Phosphorus is listed as 9.86 ± 1.90 mg/dL, the Sodium stood at 151.3 ± 4.11 mmol/L, the “Total Bilirubin” value worked out at 0.26 ± 0.05 mg/dL and the “Total Protein” value is 5.79 ± 0.34 g/dL. In data set [1] (setting [5]), this molecule showed an Alkaline phosphatase of 28.97 ± 18.75 U/L and a Creatinin of 0.24 ± 0.13 mg/dL. The IC50 in the data set with Cdc42 is 1070 nM. In addition, the “Maximal peak serum concentration” value in data set [2] is 2.48 µg/mL. Moreover, the Body weight result in data set [3] is given as “No significant difference in body weight”. Besides, in the data set on ovarian tumor cell, the “Ovarian tumor cell adhesion, migration and invadopodia formation” value is “inhibited ovarian tumor cell adhesion, migration and invadopodia formation”. Moreover, the Cytotoxicity result in the data set on ovarian tumor cell (ovarian tumor cells) was “without cytotoxicity”. For the same molecule, in the data set with SKOV3ip-GFP cells, the “Omental engraftment (GFP fluorescence, omental localization of SKOV3ip-GFP cells)” value is listed as “decreased the omental localization of SKOV3ip-GFP cells”. Also, in the data set on COX-1, the IC50 was above 100000 nM.

For the molecule `O=C(c1ccccc1)c1ccc2n1CCC2C(=O)O` (stereo not shown) [R−/S-ketorolac, ketorolac tromethamine salt], the Stability in pills result in data set [4] was “at least 3 months”.
